For data set [1], the system named is sexual erythrocytic stages of PfDd2 cultures. Kind of data set: Anti-gametocyte activity, stage I and II gametocytes. It counts as cell-based, Plasmodium falciparum. The procedure:
The effect of Compound I was tested on the development of sexual erythrocytic stages of PfDd2 cultures. Stage I and II gametocytes, were incubated for forty-eight hours with drug concentration considering the IC50 values of compounds at asexual stage assay.

In data set [2] the test system is P. berghei ookinete (Pb-GFPcon). Kind of data set: In vitro ookinete inhibition assay. The format is cell-based, Plasmodium berghei. The procedure: [3] In vitro Ookinete inhibition assay of Calxinin. To determine whether Compound I (Calxinin) is blocking the growth of the transmission stage of malaria GFP-expressing P. berghei ANKA constitutively (Pb-GFPcon), which expresses the GFP during all the developmental stages, was used during in vitro experiments. Compound I (Calxinin) was tested in nanomolar range for its ability to inhibit ookinete development. Early gametocyte stage was maintained in vitro by incubating in ookinete media containing Xanthrunic acid and various other nutrients (complete DMEM) and pH 8.0. For the inhibition assay, culture plates containing Calxinin at different concentrations were incubated for about 24 h at 19° C. on a shaker and in the dark. After 24 h, ookinete development was checked by generating blood smears from the cultures. Smears were fixed, stained with Giemsa and counted in a NIKON 80i microscope.
Example 13—In-vitro Ookinete inhibition assay Encouraged with notable potency against symptomatic asexual blood stage, liver stage, and gametocidal activity, transmission blocking efficacy of Compound I (Calxinin) was evaluated against ookinete. […] As the concentration of Compound I increases, the percentage of healthy parasite is reduced and the % of deformed parasite increases (FIG. 7B).

The subject of another data set is primary and human cells. Kind of data set: Cell cytotoxicity assays in primary and human cells (summary statements). It counts as cell-based.
Data set [3] has as its system P. berghei ANKA sporozoites. In words: Liver-stage infection in mice by mosquito bites, treatment and survival. The format is in vivo. On the procedure: [1] Liver-stage infection in mice, treatment and survival assay: GFP-expressing P. berghei ANKA were grown in Anopheles stephensi mosquitoes in the insectary at National Institute of Immunology (New Delhi, India). Sporozoite count per salivary gland and infectivity was determined before the experimental infection of mice by the mosquito bites. Briefly, anaesthetized mice were exposed to a cage of sporozoite carrying starved mosquitoes (100 mosquito/5 mouse) for 15 minutes with intermittent disturbing of mosquito every 2-3 minute in order to encourage biting and injection of more sporozoite. Biting was done at 22+1° C. and dark condition maintained in an incubator. First dose (10 mg/Kg) was given 24 hours before the infection, second dose was given two hours post sporozoite challenge (biting) drug was given intraperitonially (I.P). Remaining dosages were given 24 h post challenge.
[2] For calculating parasite load, liver of experimental mice were isolated 50 h post infection. Mice were anesthetized, abdominal area sterilized with 70% ethanol and liver dissected out. Liver was homogenized in precold denaturating solution. RNAs were isolated from the homogenized sample followed by Real Time polymerase chain reaction (PCR).
Prompted by the notable in vitro liver stage activity, mice were infected with sporozoites through mosquito bites to test the efficacy of Compound I on liver stage infection in mouse models. The infected mice were treated with fixed dose of 10 mg/kg for three days. Liver stage P. berghei parasites mature into merozoites in about 55 hours. […] To understand the pre-patient period and delay, the starting of blood stage parasite infection was monitored after three days post challenge by observing Giemsa stained smears. […] Single day delay in blood stage infection corresponds to about 10-fold decrease in liver parasite burden. Experimental mice were kept for survival studies after treatment with Compound 1 (10 mg/kg) and death day was noted.
The percentage of parasitemia remained low until day 7 post-sporozoite challenges.

The subject of data set [4] is human T-type calcium channel. In words: Whole cell patch clamp in HEK 293 cells. The format is cell-based. Conditions: increasing concentrations up to 1 microMolar. Background: The patch-clamp technique gives a direct electrical read-out from membranes.
Description: These currents were measured with the Patch clamp method in the “whole cell” configuration. In this configuration, the total currents that pass through all the calcium channels present in the plasma membrane are measured. In this case, it is measured in HEK cells, which constitutively express the human T type Calcium channel. In this case, the internal solutions contain the Cs+ instead of K+, thus blocking the K+ channels and the external one contains TEA an external channel blocker of K. This way the only currents that can develop in these cells are that of T type Calcium channels. This calcium channel is a voltage dependent channel, which is characterized by activating at membrane potentials that are more negative than L-type channels and by rapidly inactivating. […] This is the characteristic of the human T type calcium channel.
Human T-type calcium channel currents were measured with the Patch clamp on the “whole cell” configuration in HEK cells constitutively expressing human T type Calcium channel.
Data set [5] in a line: Hemostatic parameters, plasmatic and whole blood assays (thrombelastography). The procedure: (§1) Studies were performed to assess the effect of Calxinin on hemostatic parameters using plasmatic and whole blood assays.
Data set [6] can be described thus: In vitro cytotoxicity, HEK293 (Alamar Blue). The format is cell-based. Conditions: human, HEK293 cells; read-out: CC50 (50% cell toxicity). On the procedure:
In addition, the cell viability of Huh 7 and HEK293 cells was evaluated post drug exposure using the Alamar Blue assay [Riss, Terry L., et al. “Cell viability assays.” Assay Guidance Manual [Intenet]. Eli Lilly & Company and the National Centre for Advancing Translational Sciences, 2016]. Cells ([…]) were exposed to varying concentrations of test compounds, for 24 hours in 96-well plate format along with 10/100 μL Alamar Blue solution (10×=4.8 mM in phosphate buffer) per well. […] Results from the cytotoxicity assays were expressed as CC50 at which 50% of the cells died/metabolically slowed down due to drug exposure compared to the non-treated and vehicular control.
The cytotoxicity of Compound I was tested by exposing peripheral blood mononuclear cells (PBMCs) to drug concentrations corresponding to averages of both Pf3D7 and PfDd2 IC50 values. This was intended to establish whether the observed antiparasitic effects of the compounds were due to non-specific inhibitory activity. […] The IC50 required for killing the parasite is <90 nM. Therefore, in order to be toxic for human cells we have to use over 650 fold concentration.
(In general: Resazurin is reduced to fluorescent resorufin, in cell work by metabolically active cells.)

Data set [7] concerns Leishmania donovani amastigotes. Kind of data set: Anti-leishmania activity, amastigotes in THP-1 macrophages. It counts as cell-based. Conditions: 96 hours, read-out: IC50, L. donovani amastigotes in THP-1 macrophages. The procedure:
To test the anti-leishmania activity, Leishmania donovani strains: L. donovani reporter expressing red fluorescent protein, DsRed2 transgenic L. donovani (LV82)15, obtained from Ohio State University. Columbus (OSUMC). Extracellular (Promastigotes) L. donovani parasites were maintained in M199 media supplemented with 15% heat-inactivated fetal bovine serum (HI-FBS), 20 mM HEPES, 100 U/ml of penicillin and streptomycin at pH 5.5 with 5% CO2. Cultures were constantly maintained in a 25° C. incubator. Anti-leishmanial activity was determined by incubating exponentially growing log-phase promastigotes with THP-1 macrophage for 24 h to infect. Following this, plates were washed to remove the uninfected promastigotes, STD drug and Calxinin were treated 96-well plates for 96 hours. Miltefosine and paromomycin, standard medications, serve as a positive control at equivalent concentrations. Morphological alterations in the amastigotes following treatment with drugs, were examined by fluorescent microscopy. Images were analyzed for percent parasite survival upon drug treatment and enumerated the IC50. The inhibition curve of Compound I was very similar to Amphotericin B (AmpB) and lower than the 2 standard drugs.

The test system of the next data set is human platelets. Kind of data set: Agonist-induced platelet aggregation. It counts as cell-based. Conditions: up to 20 μg/ml. The procedure: as §1

A value given as a limit tells only on which side of the number the result lay.

Description for primary and human cells: PBMC were isolated from healthy donors using the Ficoll-Paque™ technique (GE Healthcare Bioscience AB, Uppsala, Sweden) from donor leukopack samples obtained from LUMC blood bank services. […] Robust cells at a concentration of 80,000 cells/ml were plated into 96-well plates and incubated for 24 hours. Cell viability and proliferation was determined by use of both MTT and Cell Titer Glo@ assays for both cell types. MTT assay was conducted by addition of 10 μL MTT solution (5 mg/mL) into each well, incubated for 4 hour at 37° C. followed by addition of 50 μL DMSO to dissolve the formazan precipitate according to the manufacturer's protocol. Aliquots were drawn from each well and color intensity was measured spectrophotometrically in SpectraMax® M5 Multi-Mode Microplate Reader.
In addition, the cell viability of Huh 7 and HEK293 cells was evaluated post drug exposure using the Alamar Blue assay [Riss, Terry L., et al. “Cell viability assays.” Assay Guidance Manual [Intenet]. […] Cells (1×10/well) were exposed to varying concentrations of test compounds, for 24 hours in 96-well plate format along with 10/100 μL Alamar Blue solution (10×=4.8 mM in phosphate buffer) per well.

The IC50 is the concentration that gives 50% inhibition. By CC50 is commonly meant the concentration at which the toxic effect on the cells reaches its halfway point. Turning to `NC(Cc1ccccc1)C(O)CN1CCN(Cc2ccc(C(F)(F)F)cc2)CC1` (centres unmarked) [Compound I], in data set [1] (48 hours at asexual stage IC50, vs DMSO control), the “maturation of stage III to V gametocytes (PfDd2)” value is reported as 41.0. For the same compound, in data set [1] (48 hours, vs DMSO control), the gametocyte morphology entry is listed as “morphologically distorted gametocytes”. Further, the “decreased proportion of stage III to V gametocytes” value in data set [1] (48 hrs at 88 nM) is “up to 59%”. Further, the ookinete morphology result in [2] (450 nanomolar) is “deformed and retarded Ookinete”. For the same compound, the IC50 in data set [2] (Plasmodium berghei, 24 h, 19° C.) is roughly 150 nM. Besides, the “toxicity to HEK293, Huh 7.1, HepG2 and PBMCs” value in the data set on primary and human cells was “did not show any toxicity”. The “concentration up to which no toxicity was seen” value in the data set with primary and human cells (primary and human cells) is greater than 30 µM. In data set [3] (10 mg/kg), the “Mean survival time (MST)” value was “about 9 days”, the “decrease in liver parasite burden corresponding to the delay” value is given as “about 10 fold” and the “delay in the prepatent period” value is “One day's delay”. The “inhibition of liver stage infection in mice” value in data set [3] (10 mg/kg for three days, I.P) is 30%. Moreover, the “activity of the Calcium T Channel (current amplitude, voltage dependence of activation)” value in [4] is given as “No difference”. The “anticoagulant effect (hemostatic parameters)” value in data set [5] was “no adverse impact”. In addition, the “clot formation by thrombelastography” value in [5] (up to 20 μg/ml) is recorded as “did not impact clot formation”. In [6], the CC50 at 24 h was determined as 60.2 µM. Moreover, the IC50 in [7] was 79.8 nM. For the same compound, in the data set with human platelets, the “agonist-induced aggregation of human platelets” value is reported as “did not alter agonist-induced aggregation of human platelets”.

The values are drawn from US11485714B2, “Hydroxyethylamine-based piperazine compounds, and methods of producing and using the same for treating disease” (National Institute of Immunology, priority 2020, dated 2022).
